Reference: patent US12139492B2 (Endotarget Inc., priority 2021, dated 2024)

Columns and labels:
JeKo-1 cells = test: Antiproliferative effect, MTS cell viability assay, JeKo-1 cells; assay type: cell-based; settings: Homo sapiens; JeKo-1 mantle cell lymphoma cells; read-out: IC50 (anti-proliferation) JeKO-1 cells
Outline: (§1)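 Tested at six concentrations (0 to 10 μM in tenfold steps), 72 h; viability by MTS, A490.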

Mino cells = test: Antiproliferative effect, MTS cell viability assay, Mino cells; assay type: cell-based; settings: Homo sapiens, MINO, Mino mantle cell lymphoma cells; read-out: IC50 (anti-proliferation) Mino cells
Outline: as §1

BTK [1] = target: T1, BTK (Homo sapiens, UniProt Q06187); test: Degradation of BTK protein in Namalwa cells (Western blot; DC50, Dmax); settings: Namalwa B lymphocyte cells, Western blot; for degradation of BTK protein: various concentrations, 24 hours
T1 sequence (Q06187 whole entry): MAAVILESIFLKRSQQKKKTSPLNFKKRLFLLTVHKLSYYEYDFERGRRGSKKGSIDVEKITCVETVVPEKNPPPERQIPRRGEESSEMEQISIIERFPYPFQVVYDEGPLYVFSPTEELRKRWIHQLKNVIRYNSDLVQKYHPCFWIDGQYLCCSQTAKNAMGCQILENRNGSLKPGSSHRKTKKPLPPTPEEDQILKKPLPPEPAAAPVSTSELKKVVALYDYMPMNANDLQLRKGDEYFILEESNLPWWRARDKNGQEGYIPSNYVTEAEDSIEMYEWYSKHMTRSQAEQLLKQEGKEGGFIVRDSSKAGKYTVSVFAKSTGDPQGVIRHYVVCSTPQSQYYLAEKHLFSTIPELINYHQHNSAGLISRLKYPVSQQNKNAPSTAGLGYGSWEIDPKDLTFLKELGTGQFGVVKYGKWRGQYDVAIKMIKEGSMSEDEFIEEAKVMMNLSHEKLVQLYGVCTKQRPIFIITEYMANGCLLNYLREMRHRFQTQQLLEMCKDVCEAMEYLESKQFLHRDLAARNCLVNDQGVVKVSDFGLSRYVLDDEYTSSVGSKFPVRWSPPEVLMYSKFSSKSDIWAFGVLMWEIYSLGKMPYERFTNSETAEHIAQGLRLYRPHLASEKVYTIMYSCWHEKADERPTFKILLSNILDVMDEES

BTK [2] = target: T1, BTK; test: BTK degradation, DC50 and Dmax of Table 1 (cell line not given); assay type: cell-based; design: endogenous in cells; settings: for DC50: concentration giving 50% reduction of BTK expression level

SMILES | degradation of BTK protein at 10^−6 M (BTK [1]) | degradation of BTK protein (BTK [1]) | Dmax (BTK [2]) [%] | DC50 (BTK [2]) [nM] | IC50 (JeKo-1 cells) [nM] | IC50 (Mino cells) [nM]
Nc1ncnc2c1c(-c1ccc(Oc3ccccc3)cc1)nn2C1CCN(C(=O)N2CCC(C3CCN(c4ccc5c(c4)C(=O)N(C4CCC(=O)NC4=O)C5=O)CC3)CC2)CC1 (stereo not drawn) [Compound 79, 5-(1′-(4-(4-amino-3-(4-phenoxyphenyl)-1H-pyrazolo(3,4-d)pyrimidin-1-yl)piperidine-1-carbonyl)-(4,4′-bipiperidin)-1-yl)-2-(2,6-dioxopiperidin-3-yl)isoindoline-1,3-dione] | degradation |  | > 75 | > 50 | > 10000 | > 10000
Nc1ncnc2c1c(-c1ccc(Oc3ccccc3)cc1)nn2[C@@H]1CCCN(C2CCN(C(=O)N3CCN(c4ccc5c(c4)C(=O)N(C4CCC(=O)NC4=O)C5=O)CC3)CC2)C1 (stereo partly drawn) [Compound 159, 5-(4-((R)-3-(4-amino-3-(4-phenoxyphenyl)-1H-pyrazolo(3,4-d)pyrimidin-1-yl)-(1,4′-bipiperidine)-1′-carbonyl)piperazin-1-yl)-2-(2,6-dioxopiperidin-3-yl)isoindoline-1,3-dione] | degradation |  | > 50 | > 50 | > 10000 | 1000 to 10000
Nc1ncnc2c1c(-c1ccc(Oc3ccccc3)cc1)nn2[C@@H]1CCCN(CC2CCN(C(=O)N3CCC(C4CCN(c5ccc6c(c5)C(=O)N(C5CCC(=O)NC5=O)C6=O)CC4)CC3)CC2)C1 (stereo partly drawn) [Compound 29, 5-(1′-(4-(((R)-3-(4-amino-3-(4-phenoxyphenyl)-1H-pyrazolo(3,4-d)pyrimidin-1-yl)piperidin-1-yl)methyl)piperidine-1-carbonyl)-(4,4′-bipiperidin)-1-yl)-2-(2,6-dioxopiperidin-3-yl)isoindoline-1,3-dione] | degradation |  | > 90 | > 50 | 1000 to 10000 | 1000 to 10000
Nc1ncnc2c1c(-c1ccc(Oc3ccccc3)cc1)nn2C1CCN(CC2CCN(C(=O)N3CCC(C4CCN(c5ccc6c(c5)C(=O)N(C5CCC(=O)NC5=O)C6=O)CC4)CC3)CC2)CC1 (stereo not drawn) [Compound 39, 5-(1′-(4-((4-(4-amino-3-(4-phenoxyphenyl)-1H-pyrazolo(3,4-d)pyrimidin-1-yl)piperidin-1-yl)methyl)piperidine-1-carbonyl)-(4,4′-bipiperidin)-1-yl)-2-(2,6-dioxopiperidin-3-yl)isoindoline-1,3-dione] | degradation | dose-dependent degradation | > 90 | > 50 | > 10000 | 1000 to 10000
Nc1ncnc2c1c(-c1ccc(Oc3ccccc3)cc1)nn2[C@@H]1CCCN(CC2CCN(C(=O)N3CCN(c4ccc5c(c4)C(=O)N(C4CCC(=O)NC4=O)C5=O)CC3)CC2)C1 (stereo partly drawn) [Compound 25, 5-(4-(4-(((R)-3-(4-amino-3-(4-phenoxyphenyl)-1H-pyrazolo(3,4-d)pyrimidin-1-yl)piperidin-1-yl)methyl)piperidine-1-carbonyl)piperazin-1-yl)-2-(2,6-dioxopiperidin-3-yl)isoindoline-1,3-dione] | degradation |  | > 75 | > 50 | 1000 to 10000 | 1000 to 10000
Nc1ncnc2c1c(-c1ccc(Oc3ccccc3)cc1)nn2C1CCN(C(=O)N2CCC(C3CCN(c4ccc5c(c4)CN(C4CCC(=O)NC4=O)C5=O)CC3)CC2)CC1 (stereo not drawn) [Compound 80, 3-(5-(1′-(4-(4-amino-3-(4-phenoxyphenyl)-1H-pyrazolo[3,4-d]pyrimidin-1-yl)piperidine-1-carbonyl)-[4,4′-bipiperidin]-1-yl)-1-oxoisoindolin-2-yl)piperidine-2,6-dione] | degradation |  | > 75 | > 50 | > 10000 | > 10000
Nc1ncnc2c1c(-c1ccc(Oc3ccccc3)cc1)nn2[C@@H]1CCCN(C(=O)N2CCC(CN3CCN(c4ccc5c(c4)C(=O)N(C4CCC(=O)NC4=O)C5=O)CC3)CC2)C1 (stereo partly drawn) [Compound 55, 5-(4-((1-((R)-3-(4-amino-3-(4-phenoxyphenyl)-1H-pyrazolo(3,4-d)pyrimidin-1-yl)piperidine-1-carbonyl)piperidin-4-yl)methyl)piperazin-1-yl)-2-(2,6-dioxopiperidin-3-yl)isoindoline-1,3-dione] | degradation | dose-dependent degradation | > 90 | 10 to 50 | < 1000 | < 1000

Continued, in another order:

degradation of BTK protein at 10^−6 M (BTK [1]) | degradation of BTK protein (BTK [1]) | Dmax (BTK [2]) [%] | DC50 (BTK [2]) [nM] | SMILES | IC50 (JeKo-1 cells) [nM] | IC50 (Mino cells) [nM]
degradation | dose-dependent degradation | > 90 | 10 to 50 | Nc1ncnc2c1c(-c1ccc(Oc3ccccc3)cc1)nn2C1CCN(CC2CCN(C(=O)N3CCC(N4CCN(c5ccc6c(c5)C(=O)N(C5CCC(=O)NC5=O)C6=O)CC4)CC3)CC2)CC1 (stereo not drawn) [Compound 37, 5-(4-(1-(4-((4-(4-amino-3-(4-phenoxyphenyl)-1H-pyrazolo(3,4-d)pyrimidin-1-yl)piperidin-1-yl)methyl)piperidine-1-carbonyl)piperidin-4-yl)piperazin-1-yl)-2-(2,6-dioxopiperidin-3-yl)isoindoline-1,3-dione] | 1000 to 10000 | < 1000
degradation | dose-dependent degradation | > 90 | < 10 | Nc1ncnc2c1c(-c1ccc(Oc3ccccc3)cc1)nn2C1CCN(C(=O)N2CCC(CN3CCN(c4ccc5c(c4)C(=O)N(C4CCC(=O)NC4=O)C5=O)CC3)CC2)CC1 (stereo not drawn) [Compound 85, 5-(4-((1-(4-(4-amino-3-(4-phenoxyphenyl)-1H-pyrazolo(3,4-d)pyrimidin-1-yl)piperidine-1-carbonyl)piperidin-4-yl)methyl)piperazin-1-yl)-2-(2,6-dioxopiperidin-3-yl)isoindoline-1,3-dione] | < 1000 | < 1000
degradation |  | > 90 | 10 to 50 | Nc1ncnc2c1c(-c1ccc(Oc3ccccc3)cc1)nn2[C@@H]1CCCN(C(=O)N2CCC(C3CCN(c4ccc5c(c4)C(=O)N(C4CCC(=O)NC4=O)C5=O)CC3)CC2)C1 (stereo partly drawn) [Compound 49, 5-(1′-((R)-3-(4-amino-3-(4-phenoxyphenyl)-1H-pyrazolo(3,4-d)pyrimidin-1-yl)piperidine-1-carbonyl)-(4,4′-bipiperidin)-1-yl)-2-(2,6-dioxopiperidin-3-yl)isoindoline-1,3-dione] | 1000 to 10000 | 1000 to 10000
degradation | dose-dependent degradation | > 90 | 10 to 50 | Nc1ncnc2c1c(-c1ccc(Oc3ccccc3)cc1)nn2C1CCN(C(=O)N2CCC(CCN3CCN(c4ccc5c(c4)C(=O)N(C4CCC(=O)NC4=O)C5=O)CC3)CC2)CC1 (stereo not drawn) [Compound 93, 5-(4-(2-(1-(4-(4-amino-3-(4-phenoxyphenyl)-1H-pyrazolo(3,4-d)pyrimidin-1-yl)piperidine-1-carbonyl)piperidin-4-yl)ethyl)piperazin-1-yl)-2-(2,6-dioxopiperidin-3-yl)isoindoline-1,3-dione] | 1000 to 10000 | 1000 to 10000
degradation | dose-dependent degradation | > 75 | 10 to 50 | Nc1ncnc2c1c(-c1ccc(Oc3ccccc3)cc1)nn2[C@@H]1CCCN(C2CCN(C(=O)N3CCC(CCN4CCN(c5ccc6c(c5)C(=O)N(C5CCC(=O)NC5=O)C6=O)CC4)CC3)CC2)C1 (stereo partly drawn) [Compound 181, 5-(4-(2-(1-((R)-3-(4-amino-3-(4-phenoxyphenyl)-1H-pyrazolo(3,4-d)pyrimidin-1-yl)-(1,4′-bipiperidine)-1′-carbonyl)piperidin-4-yl)ethyl)piperazin-1-yl)-2-(2,6-dioxopiperidin-3-yl)isoindoline-1,3-dione] | 1000 to 10000 | 1000 to 10000
degradation | dose-dependent degradation | > 90 | < 10 | Nc1ncnc2c1c(-c1ccc(Oc3ccccc3)cc1)nn2[C@@H]1CCCN(C(=O)N2CCC(N3CCN(c4ccc5c(c4)C(=O)N(C4CCC(=O)NC4=O)C5=O)CC3)CC2)C1 (stereo partly drawn) [Compound 51, 5-(4-(1-((R)-3-(4-amino-3-(4-phenoxyphenyl)-1H-pyrazolo(3,4-d)pyrimidin-1-yl)piperidine-1-carbonyl)piperidin-4-yl)piperazin-1-yl)-2-(2,6-dioxopiperidin-3-yl)isoindoline-1,3-dione] | < 1000 | < 1000
degradation | dose-dependent degradation | > 90 | 10 to 50 | Nc1ncnc2c1c(-c1ccc(Oc3ccccc3)cc1)nn2[C@@H]1CCCN(CC2CCN(C(=O)N3CCC(CN4CCN(c5ccc6c(c5)C(=O)N(C5CCC(=O)NC5=O)C6=O)CC4)CC3)CC2)C1 (stereo partly drawn) [Compound 31, 5-(4-((1-(4-(((R)-3-(4-amino-3-(4-phenoxyphenyl)-1H-pyrazolo(3,4-d)pyrimidin-1-yl)piperidin-1-yl)methyl)piperidine-1-carbonyl)piperidin-4-yl)methyl)piperazin-1-yl)-2-(2,6-dioxopiperidin-3-yl)isoindoline-1,3-dione] | 1000 to 10000 | 1000 to 10000
